In ChEMBL document CHEMBL1122254, “Sulfonyliminoimidazolidines. A new class of oral hypoglycemic agents. 1. 1-[[p-[2-(acylamino)ethyl]phenyl]sulfonyl]-2-iminoimidazolidines” (1983):

How the values were obtained:
Assay type in all cases: functional
Rattus norvegicus [1] = test: Hypoglycemic activity by lowering blood glucose in normal rats by 20% after oral administration.
Rattus norvegicus [2] = test: Hypoglycemic activity by lowering blood glucose in normal rats by 50% after oral administration.
Rattus norvegicus [3] = test: Hypoglycemic activity by lowering blood glucose in streptozotocin-diabetic rats by 20% after oral administration.
Rattus norvegicus [4] = test: Compound evaluated for hypoglycemic activity by lowering blood glucose in normal rats by 50% after oral administration (highest dose tested)
Rattus norvegicus [5] = test: Compound evaluated for hypoglycemic activity by lowering blood glucose in streptozotocin-diabetic rats by 20% after oral administration (highest dose tested)
Rattus norvegicus [6] = test: Compound evaluated for hypoglycemic activity by lowering blood glucose in streptozotocin-diabetic rats by 20% after oral administration; Inactive(less than 10% blood sugar decrease)
Rattus norvegicus [7] = test: Compound evaluated for hypoglycemic activity by lowering blood glucose in streptozotocin-diabetic rats by 20% after oral administration

Row | SMILES | ED20 (Rattus norvegicus [1]) [mmol/kg] | ED50 (Rattus norvegicus [2]) [µmol/kg] | other results
1 | CSCC(=O)NCCc1ccc(S(=O)(=O)N2CCN(C3CCCCC3)C2=N)cc1 | 0.081 | 190 | 
2 | C/N=C(\S)NCCc1ccc(S(=O)(=O)N2CCN(C3CCCCC3)C2=N)cc1 | 0.031 | 240 | 
3 | C=C(C(=O)NCCc1ccc(S(=O)(=O)N2CCN(C3CCCCC3)C2=N)cc1)c1ccccc1 | 0.014 | 48 | ED20 (Rattus norvegicus [3]): 0.96 mmol/kg
4 | CC(Nc1ccccc1)C(=O)NCCc1ccc(S(=O)(=O)N2CCN(C3CCCCC3)C2=N)cc1 (stereo not drawn) | 0.06 | 200 | ED20 (Rattus norvegicus [3]): 0.4 mmol/kg
5 | N=C1N(C2CCCCC2)CCN1S(=O)(=O)c1ccc(CCNC(=O)CNc2ccccc2)cc1 | 0.064 | 320 | ED20 (Rattus norvegicus [3]): 0.4 mmol/kg
6 | COc1ccccc1C(=O)NCCc1ccc(S(=O)(=O)N2CCN(C3CCCCC3)C2=N)cc1 | 0.093 |  | ED50 (Rattus norvegicus [4]): > 830 µmol/kg
7 | C[S+]([O-])CCC(=O)NCCc1ccc(S(=O)(=O)N2CCN(C3CCCCC3)C2=N)cc1 (stereo not drawn) | 0.056 | 200 | ED20 (Rattus norvegicus [3]): 0.86 mmol/kg
8 | COc1ccc(Cl)cc1C(=O)NCCc1ccc(S(=O)(=O)N2CCN(C3CCCCC3)C2=N)cc1 | 0.12 |  | ED50 (Rattus norvegicus [4]): > 770 µmol/kg
9 | CC[S+]([O-])CC(=O)NCCc1ccc(S(=O)(=O)N2CCN(C3CCCCC3)C2=N)cc1 (stereo not drawn) | 0.074 | 240 | ED20 (Rattus norvegicus [3]): 0.85 mmol/kg
10 | CCOC(=O)NCCc1ccc(S(=O)(=O)N2CCN(C3CCCCC3)C2=N)cc1 | 0.035 | 170 | 
11 | N=C1N(C2CCCCC2)CCN1S(=O)(=O)c1ccc(CCNC(=O)c2cnccn2)cc1 | 0.12 | 480 | ED20 (Rattus norvegicus [5]): > 0.22 mmol/kg
12 | N=C1N(C2CCCCC2)CCN1S(=O)(=O)c1ccc(CCNC(=O)c2ccco2)cc1 | 0.013 | 160 | ED20 (Rattus norvegicus [3]): 0.22 mmol/kg
13 | CCCOCC(=O)NCCc1ccc(S(=O)(=O)N2CCN(C3CCCCC3)C2=N)cc1 | 0.1 | 350 | 
14 | N=C1N(C2CCCCC2)CCN1S(=O)(=O)c1ccc(CCNC(=O)c2cncnc2)cc1 | 0.2 |  | ED20 (Rattus norvegicus [5]): > 0.59 mmol/kg; ED50 (Rattus norvegicus [4]): > 590 µmol/kg
15 | CC(N)C(=O)NCCc1ccc(S(=O)(=O)N2CCN(C3CCCCC3)C2=N)cc1 (stereo not drawn) | 0.059 | 160 | ED20 (Rattus norvegicus [3]): 0.46 mmol/kg
16 | N=C1N(C2CCCCC2)CCN1S(=O)(=O)c1ccc(CCNC(=O)Nc2ccccc2)cc1 | 0.85 |  | 
17 | C=C(C)C(=O)NCCc1ccc(S(=O)(=O)N2CCN(C3CCCCC3)C2=N)cc1 | 0.024 | 220 | 
18 | CCCCC(=O)NCCc1ccc(S(=O)(=O)N2CCN(C3CCCCC3)C2=N)cc1 | 0.035 | 120 | 
19 | Cc1cnc(C(=O)NCCc2ccc(S(=O)(=O)N3CCN(C4CCCCC4)C3=N)cc2)cn1 | 0.01 | 100 | ED20 (Rattus norvegicus [5]): > 0.61 mmol/kg
20 | C/C=C\C(=O)NCCc1ccc(S(=O)(=O)N2CCN(C3CCCCC3)C2=N)cc1 | 0.0038 | 38 | 
21 | CSc1ccccc1C(=O)NCCc1ccc(S(=O)(=O)N2CCN(C3CCCCC3)C2=N)cc1 | 0.064 | 620 | 
22 | N=C1N(C2CCCCC2)CCN1S(=O)(=O)c1ccc(CCNC(=O)CCNc2ccccc2)cc1 | 0.24 |  | ED20 (Rattus norvegicus [3]): 0.8 mmol/kg
23 | N=C1N(C2CCCCC2)CCN1S(=O)(=O)c1ccc(CCNC=O)cc1 | 0.053 | 260 | 
24 | CCC(CC)C(=O)NCCc1ccc(S(=O)(=O)N2CCN(C3CCCCC3)C2=N)cc1 | 0.098 |  | ED50 (Rattus norvegicus [4]): > 890 µmol/kg

Row | SMILES | ED20 (Rattus norvegicus [1]) [mmol/kg] | ED50 (Rattus norvegicus [2]) [µmol/kg] | other results
25 | CCCC/N=C(\S)NCCc1ccc(S(=O)(=O)N2CCN(C3CCCCC3)C2=N)cc1 | 0.015 | 210 | 
26 | C/C=C/C(=O)NCCc1ccc(S(=O)(=O)N2CCN(C3CCCCC3)C2=N)cc1 | 0.0028 | 9.6 | ED20 (Rattus norvegicus [3]): 0.18 mmol/kg
27 | N=C1N(C2CCCCC2)CCN1S(=O)(=O)c1ccc(CCNC(=O)c2cccs2)cc1 | 0.022 | 170 | 
28 | N=C1N(C2CCCCC2)CCN1S(=O)(=O)c1ccc(CCNC(=O)CCC2CCC2)cc1 | 0.052 | 200 | 
29 | N=C1N(C2CCCCC2)CCN1S(=O)(=O)c1ccc(CCNC(=O)C(N)c2ccccc2)cc1 (stereo not drawn) | 0.029 | 76 | ED20 (Rattus norvegicus [6]): > 0.18 mmol/kg
30 | N=C1N(C2CCCCC2)CCN1S(=O)(=O)c1ccc(CCNC(=O)C2CC2)cc1 | 0.034 | 150 | 
31 | N=C1N(C2CCCCC2)CCN1S(=O)(=O)c1ccc(CCNC(=O)Oc2ccccc2)cc1 | 0.042 | > 850 | 
32 | N=C1N(C2CCCCC2)CCN1S(=O)(=O)c1ccc(CCNC(=O)c2ccccc2Cl)cc1 | 0.023 | 230 | 
33 | CCOCC(=O)NCCc1ccc(S(=O)(=O)N2CCN(C3CCCCC3)C2=N)cc1 | 0.044 | 150 | 
34 | COCCC(=O)NCCc1ccc(S(=O)(=O)N2CCN(C3CCCCC3)C2=N)cc1 | 0.033 | 220 | 
35 | CC1(C(=O)NCCc2ccc(S(=O)(=O)N3CCN(C4CCCCC4)C3=N)cc2)CC=CCC1 (stereo not drawn) | 0.053 | 170 | 
36 | COc1ccc(C(=O)NCCc2ccc(S(=O)(=O)N3CCN(C4CCCCC4)C3=N)cc2)cc1 | 0.064 | 830 | 
37 | N=C1N(C2CCCCC2)CCN1S(=O)(=O)c1ccc(CCNC(=S)NC2CCCCC2)cc1 | 0.16 |  | ED50 (Rattus norvegicus [4]): > 820 µmol/kg
38 | COc1ccc(Cl)cc1C(=O)NCCc1ccc(S(=O)(=O)NC(=O)NC2CCCCC2)cc1 [GLYBURIDE] | 0.004 | 20 | ED20 (Rattus norvegicus [6]): > 0.5 mmol/kg
39 | CCCCCC/N=C(\S)NCCc1ccc(S(=O)(=O)N2CCN(C3CCCCC3)C2=N)cc1 | 0.3 |  | ED50 (Rattus norvegicus [4]): > 610 µmol/kg
40 | CC1=CCC(C(=O)NCCc2ccc(S(=O)(=O)N3CCN(C4CCCCC4)C3=N)cc2)CC1 (stereo not drawn) | 0.11 | 910 | 
41 | CC(=O)NCCc1ccc(S(=O)(=O)N2CCN(C3CCCCC3)C2=N)cc1 | 0.038 | 240 | 
42 | Cc1cc(C(=O)NCCc2ccc(S(=O)(=O)N3CCN(C4CCCCC4)C3=N)cc2)no1 | 0.022 | 130 | ED20 (Rattus norvegicus [3]): 0.14 mmol/kg
43 | CC/N=C(\S)NCCc1ccc(S(=O)(=O)N2CCN(C3CCCCC3)C2=N)cc1 | 0.016 | 140 | 
44 | N=C1N(C2CCCCC2)CCN1S(=O)(=O)c1ccc(CCNC(=O)CN)cc1 | 0.39 |  | ED20 (Rattus norvegicus [3]): 0.62 mmol/kg
45 | N=C1N(C2CCCCC2)CCN1S(=O)(=O)c1ccc(CCNC(=O)C2CC=CCC2)cc1 (stereo not drawn) | 0.0044 | 15 | ED20 (Rattus norvegicus [3]): 0.39 mmol/kg
46 | N=C1N(C2CCCCC2)CCN1S(=O)(=O)c1ccc(CCNC(=S)Nc2ccccc2)cc1 | 0.063 | 630 | 
47 | CC(C)CC(=O)NCCc1ccc(S(=O)(=O)N2CCN(C3CCCCC3)C2=N)cc1 | 0.046 | 150 | 
48 | CN(C)CC(=O)NCCc1ccc(S(=O)(=O)N2CCN(C3CCCCC3)C2=N)cc1 | 0.057 | 180 | 

Row | SMILES | ED20 (Rattus norvegicus [1]) [mmol/kg] | ED50 (Rattus norvegicus [2]) [µmol/kg] | other results
49 | COc1ccc(C(=O)NCCc2ccc(S(=O)(=O)N3CCN(C4CCCCC4)C3=N)cc2)cc1OC | 0.066 | 780 | 
50 | CCCC(=O)NCCc1ccc(S(=O)(=O)N2CCN(C3CCCCC3)C2=N)cc1 | 0.024 | 83 | ED20 (Rattus norvegicus [7]): 0.52 mmol/kg
51 | CCCCOC(=O)NCCc1ccc(S(=O)(=O)N2CCN(C3CCCCC3)C2=N)cc1 | 0.079 | 890 | ED20 (Rattus norvegicus [3]): 0.89 mmol/kg
52 | C=CC(=O)NCCc1ccc(S(=O)(=O)N2CCN(C3CCCCC3)C2=N)cc1 | 0.042 | 210 | 
53 | CCCCNC(=O)NCCc1ccc(S(=O)(=O)N2CCN(C3CCCCC3)C2=N)cc1 | 0.067 | 330 | 
54 | CCCSCC(=O)NCCc1ccc(S(=O)(=O)N2CCN(C3CCCCC3)C2=N)cc1 | 0.1 | 550 | 
55 | CSCCC(=O)NCCc1ccc(S(=O)(=O)N2CCN(C3CCCCC3)C2=N)cc1 | 0.053 | 200 | 
56 | CCSCC(=O)NCCc1ccc(S(=O)(=O)N2CCN(C3CCCCC3)C2=N)cc1 | 0.055 | 200 | ED20 (Rattus norvegicus [3]): 0.57 mmol/kg
57 | C=CCCC(=O)NCCc1ccc(S(=O)(=O)N2CCN(C3CCCCC3)C2=N)cc1 | 0.0069 | 15 | ED20 (Rattus norvegicus [3]): 0.36 mmol/kg
58 | CCC/C=C/C(=O)NCCc1ccc(S(=O)(=O)N2CCN(C3CCCCC3)C2=N)cc1 | 0.009 | 22 | ED20 (Rattus norvegicus [3]): 0.81 mmol/kg
59 | N=C1N(C2CCCCC2)CCN1S(=O)(=O)c1ccc(CCNC(=O)c2cccnc2)cc1 | 0.034 | 160 | ED20 (Rattus norvegicus [5]): > 0.22 mmol/kg
60 | C/C=C(/C)C(=O)NCCc1ccc(S(=O)(=O)N2CCN(C3CCCCC3)C2=N)cc1 | 0.0035 | 17 | 
61 | N=C1N(C2CCCCC2)CCN1S(=O)(=O)c1ccc(CCNC(=S)NC2CCCC2)cc1 | 0.05 | 210 | 
62 | N=C1N(C2CCCCC2)CCN1S(=O)(=O)c1ccc(CCNC(=O)c2ccc(Cl)c(Cl)c2)cc1 | 0.37 |  | ED50 (Rattus norvegicus [4]): > 760 µmol/kg
63 | N=C1N(C2CCCCC2)CCN1S(=O)(=O)c1ccc(CCNC(=O)/C=C/c2ccccc2)cc1 | 0.11 |  | ED50 (Rattus norvegicus [4]): > 630 µmol/kg
64 | N=C1N(C2CCCCC2)CCN1S(=O)(=O)c1ccc(CCNC(=O)CCN)cc1 | 0.065 | 370 | ED20 (Rattus norvegicus [3]): 0.76 mmol/kg
65 | COc1cccc(C(=O)NCCc2ccc(S(=O)(=O)N3CCN(C4CCCCC4)C3=N)cc2)c1 | 0.062 | 380 | ED20 (Rattus norvegicus [7]): 0.31 mmol/kg
66 | CCS(=O)(=O)CC(=O)NCCc1ccc(S(=O)(=O)N2CCN(C3CCCCC3)C2=N)cc1 | 0.11 | 530 | ED20 (Rattus norvegicus [7]): 0.83 mmol/kg
67 | CC(C(=O)NCCc1ccc(S(=O)(=O)N2CCN(C3CCCCC3)C2=N)cc1)N(C)C (stereo not drawn) | 0.024 | 62 | 
68 | CCCCN(C)C(=O)NCCc1ccc(S(=O)(=O)N2CCN(C3CCCCC3)C2=N)cc1 | 0.054 | 320 | 
69 | CC(C)/C=C/C(=O)NCCc1ccc(S(=O)(=O)N2CCN(C3CCCCC3)C2=N)cc1 | 0.0096 | 34 | 
70 | Cc1ccccc1C(=O)NCCc1ccc(S(=O)(=O)N2CCN(C3CCCCC3)C2=N)cc1 | 0.022 |  | ED50 (Rattus norvegicus [4]): > 850 µmol/kg
